In patent US8153693B2, “Compounds for the selective treatment of the intestinal immuno-inflammatory component of the celiac disease” (Giuliani International Limited, priority 2007, dated 2012):

Experiments:
PPARγ = target: T1, PPARγ (Homo sapiens, UniProt P37231); test: PPARγ activation, PPRE luciferase reporter in transfected HT-29 STD cells (Example 7); assay type: cell-based; details: 30 mM, positive control
T1 construct: HT-29 STD cells were transiently transfected using the Effectene™ transfection reagent; endogenous in cells; host or cells: HT-29 STD (ATCC HTB-38)
T1 sequence (P37231 1-505): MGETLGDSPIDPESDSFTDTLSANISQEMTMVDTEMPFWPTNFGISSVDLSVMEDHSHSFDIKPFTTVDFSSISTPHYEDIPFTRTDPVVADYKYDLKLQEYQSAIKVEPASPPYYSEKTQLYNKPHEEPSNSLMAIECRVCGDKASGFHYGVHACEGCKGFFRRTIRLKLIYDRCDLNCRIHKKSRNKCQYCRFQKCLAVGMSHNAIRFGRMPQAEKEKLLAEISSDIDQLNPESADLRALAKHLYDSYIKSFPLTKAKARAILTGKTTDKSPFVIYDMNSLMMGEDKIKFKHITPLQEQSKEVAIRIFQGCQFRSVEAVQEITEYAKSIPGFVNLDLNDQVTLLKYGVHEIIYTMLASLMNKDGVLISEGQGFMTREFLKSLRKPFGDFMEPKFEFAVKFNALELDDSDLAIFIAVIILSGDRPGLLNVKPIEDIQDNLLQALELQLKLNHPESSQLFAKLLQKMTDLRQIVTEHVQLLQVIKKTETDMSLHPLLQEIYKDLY
Method: The colon carcinoma cell line HT-29 STD (ATCC HTB-38) was routinely grown in DMEM supplemented with 10% heat-FCS, and antibiotics.
HT-29 STD cells were transiently transfected using the Effectene™ transfection reagent (Qiagen™) according to instructions from the manufacturer. To test PPARγ activation, we performed transfection with 500 ng of a minimal promoter construct containing two copies of PPRE obtained from the cytochrome p450 4A (2XCYP). The renilla luciferase plasmid (0.1 μg/well) was also transfected as an internal control for monitoring transfection efficiency and for normalizing the firefly luciferase activity. Transfected cells were left for 24 hours incubation at 37° C. […] The pH of the drug solutions was adjusted to 7.4 with NaOH. Total cell extracts were prepared using the Passive Lysis Buffer (Promega™, Madison, Wis.). Luciferase activity was assayed in 20 μl of the extract using Promega's Dual Luciferase assay system according to manufacturer's protocol. Transfections were assayed in triplicate in at least three separate experiments. The luciferase activity was expressed as fold of the activity obtained in cells treated with the different molecules dividing by luciferase activity from non stimulated cells.
We investigated PPARγ transcriptional activity by transient transfections of epithelial cells with the renilla luciferase and PPRE plasmids. […]

cytokines = test: Organ culture of duodenal biopsies, cytokines overall; assay type: cell-based, human; details: biopsies of celiac disease subjects versus subjects without celiac disease
Method: The biopsies were washed in saline for two minutes at least three times. The biopsies were placed in culture media having a volume equal to 1 ml: The biopsies are incubated in an O2 (95%) and CO2 (5%) atmosphere at a temperature of 37° C. for a period ranging from 4 h to 72 h. Three different amounts of medium are shared for the ELISA assay of Th1 and Th2 cytokines released in culture media.

TNF [1] = test: Cytokine assay (ELISA) from homogenate of cultured duodenal biopsies: TNF; assay type: cell-based, human; details: for TNF, PT + 5ASA O, Mean / TNF, PT + 5ASA O, Median: peptic-tryptic digest of gliadin (PT)
Method: The biopsies were washed in saline for two minutes at least three times. […] After an incubation time ranging from 4 h to 72 h, at a T of 37° C.: The bioptic fragment is washed three times in saline for two minutes The biopsies are homogenised by mechanical or chemical disintegration Centrifugation is carried out, the supernatant is collected and transferred in a 1.5 ml Eppendorf Fixed cytokines in the mucosal tissue are assayed by the Elisa assay.

IL-2 [2] = test: Cytokine assay (ELISA) in culture liquids of duodenal biopsy organ cultures: IL-2; assay type: cell-based, human; details: for IL-2, PT + 5ASA C, Mean / IL-2, PT + 5ASA C, Median: peptic-tryptic digest of gliadin (PT)
Method: (§1) 3 groups of subjects were evaluated. The first (atrophic) group included 29 subjects with serum tests positive to antiendomysium and anti-transglutaminase antibodies, with a neo-diagnosis of celiac disease and gluten-containing diet. The second (Remission) group included 17 celiac disease subjects in clinical remission and gluten-free diet for at least 6 months. The third (Healthy) group included subjects not suffering from the celiac disease but suffering from inflammation of the gastro-enteric tract. […] The biopsies were washed in saline for two minutes at least three times. […] Three different amounts of medium are shared for the ELISA assay of Th1 and Th2 cytokines released in culture media.

IFN-gamma = test: Gene expression (mRNA) by RT-PCR in cultured duodenal biopsies of celiac patients: IFN-gamma; assay type: cell-based, human; details: PT medium with 5-ASA versus PT medium, 37° C., 48 h; optical density of bands
TFN-alpha = test: Gene expression (mRNA) by RT-PCR in cultured duodenal biopsies of celiac patients: TFN-alpha; assay type: cell-based, human; details: PT medium with 5-ASA versus PT medium, 37° C., 48 h; optical density of bands
IFN = test: Cytokine assay (ELISA) in culture liquids of duodenal biopsy organ cultures, 5-ASA 1.5-8.0 mg per ml, 4 h to 72 h: IFN; assay type: cell-based, human; details: for IFN, PT + 5ASA C, Mean / IFN, PT + 5ASA C, Median: peptic-tryptic digest of gliadin (PT)
Method: as §1

TNF [3] = test: Cytokine assay (ELISA) in culture liquids of duodenal biopsy organ cultures: TNF; assay type: cell-based, human; details: for TNF, PT + 5ASA C, Mean / TNF, PT + 5ASA C, Median: peptic-tryptic digest of gliadin (PT)
Method: as §1

IL-2 [4] = test: Gene expression (mRNA) by RT-PCR in cultured duodenal biopsies of celiac patients: IL-2; assay type: cell-based, human; details: PT medium with 5-ASA versus PT medium, 37° C., 48 h; optical density of bands
[5] = Atrophic population, N 11, Wilcoxon p = 0.002
[6] = Atrophic population, N 11, Wilcoxon p = N.S.
[7] = Remission population, N 5, Wilcoxon p = N.S.
[8] = Atrophic population, N 15, Wilcoxon p = 0.012
[9] = Atrophic population, N 15, Wilcoxon p = 0.03
[10] = Positive control population, N 7
[11] = Positive control population, N 7, Wilcoxon p = 0.07
[12] = Positive control population, N 7, Wilcoxon p = N.S.
[13] = Remission population, N 12, Wilcoxon p = N.S.
[14] = Atrophic population, N 22, Wilcoxon p = 0.05
[15] = Atrophic population, N 22, Wilcoxon p = 0.08
[16] = Remission population, N 15, Wilcoxon p = 0.022
[17] = Remission population, N 15, Wilcoxon p = N.S.
[18] = Atrophic population, N 21, Wilcoxon p = N.S.

## Nc1ccc(O)c(C(=O)O)c1 [Compound 5ASA, mesalazine]
PPARγ
  increase of the reporter gene activity: 2.8±0.7 fold
cytokines
  effect of Mesalazine in culture media on the cytokines: blocks the cytokines in celiac disease subjects only
TNF [1]; Atrophic population, N 11
  TNF, Medium + 5ASA O, Mean: 0.123
  TNF, PT + 5ASA O, Mean: 0.101
  TNF, PT + 5ASA O, Median: 0.0980
TNF [1]; [5]
  TNF, Difference PT O/PT + 5ASA O, Mean: 0.0554
  TNF, Difference PT O/PT + 5ASA O, Median: 0.0270
TNF [1]; [6]
  TNF, Difference Medium O/Medium + 5ASA O, Mean: 0.0154
  TNF, Difference Medium O/Medium + 5ASA O, Median: 0.0100
TNF [1]; Remission population, N 5
  TNF, Medium + 5ASA O, Mean: 0.122
  TNF, PT + 5ASA O, Mean: 0.107
  TNF, PT + 5ASA O, Median: 0.110
TNF [1]; [7]
  TNF, Difference Medium O/Medium + 5ASA O, Mean: −0.00
  TNF, Difference Medium O/Medium + 5ASA O, Median: 0.0050
  TNF, Difference PT O/PT + 5ASA O, Mean: 0.0194
  TNF, Difference PT O/PT + 5ASA O, Median: 0.0210
IL-2 [2]; Atrophic population, N 15
  IL-2, Medium + 5ASA C, Mean: 0.119
  IL-2, Medium + 5ASA C, Median: 0.0910
  IL-2, PT + 5ASA C, Mean: 0.124
  IL-2, PT + 5ASA C, Median: 0.0770
IL-2 [2]; [8]
  IL-2, Difference PT C/PT + 5ASA C, Mean: 0.0270
  IL-2, Difference PT C/PT + 5ASA C, Median: 0.0410
IL-2 [2]; [9]
  IL-2, Difference Medium C/Medium + 5ASA C, Mean: 0.0559
  IL-2, Difference Medium C/Medium + 5ASA C, Median: 0.0490
IL-2 [2]; [10]
  IL-2, Medium + 5ASA C, Mean: 0.356
  IL-2, Medium + 5ASA C, Median: 0.379
  IL-2, PT + 5ASA C, Mean: 0.521
  IL-2, PT + 5ASA C, Median: 0.468
IL-2 [2]; [11]
  IL-2, Difference Medium C/Medium + 5ASA C, Mean: 0.116
  IL-2, Difference Medium C/Medium + 5ASA C, Median: 0.247
IL-2 [2]; [12]
  IL-2, Difference PT C/PT + 5ASA C, Mean: −0.020
  IL-2, Difference PT C/PT + 5ASA C, Median: 0.0210
IL-2 [2]; Remission population, N 12
  IL-2, Medium + 5ASA C, Mean: 0.309
  IL-2, Medium + 5ASA C, Median: 0.253
  IL-2, PT + 5ASA C, Mean: 0.234
  IL-2, PT + 5ASA C, Median: 0.194
IL-2 [2]; [13]
  IL-2, Difference Medium C/Medium + 5ASA C, Mean: 0.0061
  IL-2, Difference Medium C/Medium + 5ASA C, Median: 5E−4
  IL-2, Difference PT C/PT + 5ASA C, Mean: 0.0365
  IL-2, Difference PT C/PT + 5ASA C, Median: 0.0260
IFN-gamma
  gene expression (mRNA) of IFN-gamma: well reduced
TFN-alpha
  gene expression (mRNA) of TFN-alpha: well reduced
IFN; [14]
  IFN, Difference PT C/PT + 5ASA C, Mean: 0.0657
  IFN, Difference PT C/PT + 5ASA C, Median: 0.0505
IFN; [15]
  IFN, Difference Medium C/Medium + 5ASA C, Mean: 0.0601
  IFN, Difference Medium C/Medium + 5ASA C, Median: 0.0260
IFN; Atrophic population, N 22
  IFN, PT + 5ASA C, Mean: 0.145
  IFN, PT + 5ASA C, Median: 0.0545
IFN; [10]
  IFN, Medium + 5ASA C, Mean: 0.149
  IFN, Medium + 5ASA C, Median: 0.140
  IFN, PT + 5ASA C, Mean: 0.116
  IFN, PT + 5ASA C, Median: 0.121
IFN; [12]
  IFN, Difference Medium C/Medium + 5ASA C, Mean: 0.004
  IFN, Difference Medium C/Medium + 5ASA C, Median: 0.029
  IFN, Difference PT C/PT + 5ASA C, Mean: 0.0247
  IFN, Difference PT C/PT + 5ASA C, Median: 0.0090
IFN; Remission population, N 15
  IFN, Medium + 5ASA C, Mean: 0.201
  IFN, Medium + 5ASA C, Median: 0.208
  IFN, PT + 5ASA C, Mean: 0.153
  IFN, PT + 5ASA C, Median: 0.0960
IFN; [16]
  IFN, Difference PT C/PT + 5ASA C, Mean: 0.101
  IFN, Difference PT C/PT + 5ASA C, Median: 0.0210
IFN; [17]
  IFN, Difference Medium C/Medium + 5ASA C, Mean: 0.0383
  IFN, Difference Medium C/Medium + 5ASA C, Median: 0.0500
TNF [3]; Atrophic population, N 21
  TNF, Medium + 5ASA C, Mean: 0.472
  TNF, Medium + 5ASA C, Median: 0.204
  TNF, PT + 5ASA C, Mean: 0.414
  TNF, PT + 5ASA C, Median: 0.120
TNF [3]; Atrophic population, N 21, Wilcoxon p < 0.0001
  TNF, Difference PT C/PT + 5ASA C, Median: 0.0580
TNF [3]; [18]
  TNF, Difference Medium C/Medium + 5ASA C, Mean: 0.0048
  TNF, Difference Medium C/Medium + 5ASA C, Median: 0.0150
TNF [3]; [10]
  TNF, Medium + 5ASA C, Mean: 0.259
  TNF, Medium + 5ASA C, Median: 0.229
  TNF, PT + 5ASA C, Mean: 0.291
TNF [3]; [12]
  TNF, Difference Medium C/Medium + 5ASA C, Mean: 0.005
  TNF, Difference Medium C/Medium + 5ASA C, Median: 0.0040
  TNF, Difference PT C/PT + 5ASA C, Mean: 0.0226
  TNF, Difference PT C/PT + 5ASA C, Median: 0.0250
TNF [3]; Remission population, N 15
  TNF, Medium + 5ASA C, Mean: 0.894
  TNF, Medium + 5ASA C, Median: 0.571
  TNF, PT + 5ASA C, Mean: 0.305
  TNF, PT + 5ASA C, Median: 0.545
TNF [3]; Remission population, N 15, Wilcoxon p = 0.005
  TNF, Difference PT C/PT + 5ASA C, Median: 0.221
TNF [3]; [17]
  TNF, Difference Medium C/Medium + 5ASA C, Mean: 0.0541
  TNF, Difference Medium C/Medium + 5ASA C, Median: 0.0790
IL-2 [4]
  gene expression (mRNA) of IL-2: well reduced
